US20230398118A1, “METHODS OF TREATING CARDIOVASCULAR-RELATED DISEASE” (Keros Therapeutics, Inc., priority 2020, published 2023)

Legend:
Format in all cases: in vivo, human
[1] = test system: healthy male volunteers and healthy postmenopausal female volunteers; assay: Phase 1 safety and tolerability, single and multiple ascending oral doses
Source text: A total of 131 healthy, males aged 18 to 60 years and post-menopausal females aged 45 to 60 years, participated in this study.
(§1) The primary objectives of this study were to a) evaluate safety and tolerability of escalating doses of the compound of Formula I-11 administered as single and multiple oral doses in healthy male volunteers and healthy postmenopausal female volunteers and b) evaluate the PK parameters following escalating doses of the compound of Formula I-11 administered as single and multiple oral doses. The […] secondary objective of this study was to evaluate the pharmacodynamic (PD) parameters following escalating doses of the compound of Formula I-11 administered as single and multiple oral doses. This study was conducted in two parts.
Part 1 included 80 participants (10 cohorts of 8 participants each). Male and female participants who met the eligibility criteria were randomly assigned, in a ratio of 3:1 to receive the compound of Formula I-11 or matching placebo, N=6 and 2 per dose cohort, respectively. Participant enrollment included […] males and 12.5% females (postmenopausal). The IMP formulation used in Cohorts 1 through 6 was an oral capsule (doses of 1, 3, 10, 30, 100, or 300 mg capsule formulation). An oral liquid formulation was evaluated in Cohorts 7 through 10 (doses of 30, 100, 300 or 450 mg liquid formulation).
(§2) Participants in Part 1 received a single oral dose of the compound of Formula I-11 or placebo on Day 1 and serial PK samples were collected. Baseline assessments were performed on day −1 prior to dosing. Samples were collected for determination of pharmacodynamic parameters at pre-dose daily and up to 24 hours post dose (day 2) after a single oral dose of the compound of Formula I-11. Participants remained at the study site for observation for 24 hours post-dose through the PK sample collection on Day 2. Participants returned to the site for the 48, 72, and 120-hour post-dose sample collection on Days 3, 4, and 6. Safety was evaluated by a Safety Review Committee prior to escalation to the next dose level cohort.
Part 2, Cohorts 1 through 4, included 41 participants (4 cohorts of 10 participants each and 1 additional placebo participant in Cohort 1). Male and female participants who met the eligibility criteria were randomly assigned at a ratio of 4:1 to receive either the compound of Formula I-11 oral liquid formulation or matching placebo, N=8 and 2 per dose cohort respectively. Forty (97.6%) males and 1 (2.4%) female (placebo) participant were enrolled.
(§3) Participants in Part 2, Cohorts 1 through 3, received a daily oral dose of the compound of Formula I-11 (50, 100, or 200 mg liquid formulation respectively) or placebo for 7 days. A daily oral dose of the compound of Formula I-11 or placebo in participants in Part 2, Cohort 4 (350 mg liquid formulation) was planned for 14 days but was discontinued early in all subjects, either by the Investigator because of AEs, or by the Sponsor. A decision was made by the Sponsor to discontinue dosing of the entire cohort based on the frequency of AEs and laboratory abnormalities after Day 9. In Cohort 4, participants on the compound of Formula I-11 received daily oral dosing of 350 mg for up to 7 days; one placebo participant received daily oral dosing for 9 days. Samples were collected for determination of pharmacodynamic parameters at pre-dose daily and to 24 hours post dose (day 8) while on drug. Daily trough PK samples were collected for the determination of steady-state from Day 2 to Day 12 or 13. Participants returned to the site on Day 30 for an end-of-study visit. Safety was evaluated by a Safety Review Committee prior to escalation to the next dose level cohort.
Part 2, MAD Cohort 5 participants received either the compound of Formula I-11, 100 mg (n=8) or placebo (n=2) on Days 1, 2, 3, 4, 5, 6, 7. The last dose was administered on the morning of Day 7. […]

[2] = test system: healthy male volunteers and healthy postmenopausal female volunteers; assay: Pharmacodynamics: serum cholesterol, LDL and HDL cholesterol by standard clinical laboratory tests
Source text: as §1, §2, §3
Pharmacodynamic endpoints: Protocol-specified endpoints were assessed at baseline and regularly throughout the study period. These assessments included serum cholesterol, LDL, and HDL cholesterol. Measurements of all pharmacodynamic end points were made using standard clinical laboratory tests.

[3] = Pharmacokinetics after single and multiple oral doses
Source text: as §1, §2
Participants in Part 2, Cohorts 1 through 3, received a daily oral dose of the compound of Formula I-11 (50, 100, or 200 mg liquid formulation respectively) or placebo for 7 days. A daily oral dose of the compound of Formula I-11 or placebo in participants in Part 2, Cohort 4 (350 mg liquid formulation) was planned for 14 days but was discontinued early in all subjects, either by the Investigator because of AEs, or by the Sponsor. A decision was made by the Sponsor to discontinue dosing of the entire cohort based on the frequency of AEs and laboratory abnormalities after Day 9. […] Safety was evaluated by a Safety Review Committee prior to escalation to the next dose level cohort. […]

[4] = repeated oral administration, all MAD cohorts (1-5), Day 7

Question: Which results are given for `COc1cc2c(-c3cnn4cc(N5CCC(N6CCN(C)CC6)CC5)cnc34)ccnc2cc1F` [Formula I-11]?
Answer: dose level well tolerated ([1]; after 7 daily oral doses (Part 2, MAD)): up to 200 mg; subjects with increases in ALT >2x ULN ([1]; both, human, in vivo): 3 subjects; AEs reported and higher than placebo ([1]; in vivo): headache, nausea, vomiting, diarrhea, gastroenteritis, chills, pyrexia, myalgia, decreased appetite, lymphopenia, neutropenia, and liver enzyme increases; serious adverse events ([1]; in vivo): no serious adverse events; severity of the majority of AEs ([1]; in vivo): mild or moderate in severity; participants who discontinued the study ([1]; male, human, in vivo): 3 (9.4%) participants; dose level well tolerated ([1]; single oral dose (Part 1, SAD)): up to 450 mg; decrease in LDL compared with HDL cholesterol ([2]; all MAD cohorts, Day 7): greater decreases in LDL than HDL cholesterol; total cholesterol ([2]; repeated oral administration, MAD Cohorts 1-4, across the one-week dosing period): decreases in total cholesterol; HDL cholesterol [2, 4]: decreases in HDL cholesterol; LDL cholesterol [2, 4]: decreases in LDL cholesterol; total cholesterol ([2]; single oral administration, SAD cohorts, within 24 hours): decreases in total cholesterol; half-life ([3]; both sexes, in vivo, human, oral): 10 to 15 h; Mean AUC, dose dependence ([3]; multiple doses from 50-200 mg): increased linearly with greater than dose-proportional increases; Mean Cmax, dose dependence ([3]; multiple doses from 50-200 mg): increased linearly with greater than dose-proportional increases
